This is an account of results in US20220175777A1, “Inhibitors of Multidrug Resistance Transporter P-Glycoprotein” (Southern Methodist University, priority 2014, published 2022).

Data set [1] deals with DU145TXR. The experiment in a line: Dose dependent sensitization of MDR cell line to paclitaxel (MTT). It is filed as cell-based, human. Conditions: 5 μM and 10 μM compound. On the procedure: FIGS. 6A to 6C show the dose dependent sensitization of MDR prostate cancer cell line DU145TxR. […] For reference, the DU145TxR (closed circle) and DU145 (open circle) incubated with paclitaxel only are also included. Values are mean±SEM from at least 2 separate experiments performed in triplicate wells. The data were normalized to the intrinsic toxicities as determined in studies from FIGS. 5A to 5C of each of the compounds for each of the corresponding concentrations.
Dose Dependent Sensitization of MDR Prostate Cancer Cell Line: To determine the degree to which the MDR prostate cancer cell line DU145TxR could be sensitized to paclitaxel the inventors determined cell survival at increasing concentrations of paclitaxel in the presence of three concentrations of P-gp inhibitors. FIGS. 6A, 6B and 6C show the survival of DU145TxR at increasing concentration of paclitaxel in the presence of 5 μM, 10 μM and 25 μM of the experimental compounds, respectively. The open circles represent the parental DU145 cell line in the presence of paclitaxel without addition of any inhibitor compound. The closed circles represent the survival of the multidrug resistant DU145TxR in the presence of paclitaxel alone. […] At that concentration over 10-fold increase in paclitaxel sensitivity in DU145TxR is observed compared to DU145TxR without P-gp inhibitors. Doubling the concentration of the compounds to 10 μM approximately doubled the DU145TxR sensitivity to paclitaxel.

The subject of data set [2] is DU145TXR. The data set can be described thus: Potentiation of 500 nM paclitaxel cytotoxicity (MTT). The data set is classed as cell-based, human. The following applies: 50 nM-25 μM inhibitor with 500 nM paclitaxel. On the procedure:
FIGS. 4A and 4B show the in silico identified P-gp inhibitors potentiate the cytotoxic effects of paclitaxel in the MDR human prostate cancer cell line DU145TxR. […] Values represent the mean±SEM of at least two separate experiments performed in triplicate.
A range of experimental inhibitor concentrations was added in the presence of 500 nM paclitaxel and the cell viability was assessed using the MTT assay.
In order to compare the efficacy of inhibitors, the potentiation concentration of inhibitor resulting in 50% reduction in cell viability, PC50, in the presence of 500 nM paclitaxel was calculated from the data in FIG. 4A.

Data set [3] has as its target T1, Cysteineless Mouse MDR3 P-glycoprotein (Mus musculus, UniProt P21447, C1070A/C1121A/C1223A/C133A/C427A/C638A/C669A/C713A/C952A).
T1 construct: made in house; host or cells: Pichia pastoris
Conditions: ESR data of Brewer et al. (2014); cited from earlier work.

Data set [4] deals with DU145TXR. The data set can be described thus: Intrinsic toxicity, MTT survival. It is filed as cell-based, human. On the procedure:
(§1) Percent survival determined by MTT assay calculated relative to cells treated with equal volume DMSO vehicle and represent the mean±SEM from 2-4 separate studies, each study performed in triplicate wells.
(§2) The intrinsic in vitro toxicities of identified compounds were evaluated to determine their potential therapeutic window. This was assessed in a noncancerous cell line (HFL1) and the human prostate cancer cell lines DU145 and the MDR sub-line DU145TxR.

Data set [5] concerns DU145. The experiment in a line: Intrinsic toxicity, MTT survival. It is filed as cell-based. The following applies: Homo sapiens, DU-145, 48 hours, ± standard error. On the procedure:
as §1, §2

Data set [6] deals with Normal Human MDR1 P-glycoprotein (Homo sapiens, UniProt P08183). The experiment in a line: ATP hydrolysis by human P-gp assembled into membrane nanodiscs. The data set is classed as biochemical. Conditions: human MDR1 P-gp in nanodiscs. The text has this:
To assess whether the observed discrepancies of compounds stimulating basal P-gp ATPase activity but not being transport substrates of the human pump in the cell culture assessments were due to the fact that these biochemical assays used a cysteineless variant of the mouse MDR3 P-glycoprotein, the experiments were repeated using normal human MDR1 P-gp. In order to stabilize the human protein for the activity assays, the protein was assembled into membrane nanodiscs as described herein.

Data set [7] has as its target T1, Cysteineless Mouse MDR3 P-glycoprotein. The data set can be described thus: SL-ATP binding to P-gp by ESR spectroscopy. Conditions: SL-ATP titration in presence of compound. The text has this:
Determination of the possible mode of ATP hydrolysis inhibition by the identified P-glycoprotein inhibitors. The mode of hydrolysis of ATP by P-glycoprotein was investigated by measuring the maximal binding stoichiometry and binding affinity of an analog of ATP, SL-ATP, and by Electron Spin Resonance (ESR) spectroscopy, similar to in both the presence and absence of the identified inhibitors.
The high-field signal of the freely mobile, unbound SL-ATP is compared and is used to calculate the amount of ATP-analog bound to P-glycoprotein. Binding of SL-ATP in the absence of any P-glycoprotein inhibitor saturated at about 2 mol of SL-nucleotide bounds per mol of P-glycoprotein.
FIGS. 2A-2D are plots showing the effects of P-glycoprotein ATP hydrolysis inhibitors on nucleotide binding. Between 30 and 50 microM Pgp were incubated with 50 microM inhibitor compound. Increasing amounts of SL-ATP were added. The ESR signal of the free SL-ATP in the presence of P-glycoprotein and inhibitor was compared to that in the absence of P-glycoprotein. The graphs represent at least 3 individual studies each using 3 to 5 different P-glycoprotein preparations.

In data set [8] the test system is P-gp overexpressing DU145TXR cells. The data set can be described thus: Calcein AM accumulation assay. It is filed as cell-based, human. On the procedure:
Accumulation and cellular retention of calcein AM in P-gp overexpressing prostate cancer cells upon incubation with Group 1 SMU-29 variants. Calcein AM accumulation assays have been used by us previously to evaluate P-gp-substrate accumulation in real time in the presence or absence of P-gp inhibitors^28. For these assays, P-gp overexpressing DU145TXR cells were incubated with the respective inhibitors in the presence of the P-gp substrate, calcein AM. Inhibition of P-gp leads to cellular accumulation of calcein AM and to cleavage of its acetoxymethyl ester groups, resulting in the generation of the highly fluorescent compound, calcein. The anionic calcein is not a substrate of P-gp and remains in the cells. In these assays, the relative fluorescence of cellular calcein was measured over time and the results of these assays are shown in FIG. 10A.
The inventors determined if preferential partitioning of variants in the hydrophobic part of the cell membrane may keep them more distant from the putative allosteric site on P-gp which is located adjacent to the membrane in the cytoplasm, therefore potentially slowing the inhibitory effect of the compounds.

In data set [9] the test system is DU145TXR. The data set can be described thus: Resensitization of DU145TXR to paclitaxel by 29 variants (MTT cell viability). It is filed as cell-based, human. The following applies: for Fold vs PTX ÷ 29: compared to parental compound 29. The text has this: The Group 1 ChemGen/docking routine produced variants of P-gp inhibitor 29 resensitize a multidrug resistant, P-gp overexpressing prostate cancer cell line to paclitaxel. The mitochondrial reduction potential of cells is often used as an indicator for cell viability using MTT assays^40-42. Using these assays it was observed that the five Group 1 derivatives of 29 predicted through the ChemGen/docking routine and synthesized here, 216, 227, 231, 541 and 551, re-sensitized the P-gp overexpressing prostate cancer cell line, DU145TXR^33, to the chemotherapeutic, paclitaxel (FIG. 9, showing results of assays at concentrations of 3 μM, 5 μM, 7 μM, and 10 μM).
Cytotoxicity of the chemotherapeutic, paclitaxel (PTX) to P-gp overexpressing prostate cancer cells, DU145TXR, was determined in the absence and presence of the ChemGen designed 29-variants, 216, 227, 231, 541 and 551. For each experimental compound IC50 values of PTX alone or in the presence of inhibitors, fold improvement of PTX sensitivity in the presence of inhibitor, and fold improvement of PTX sensitivity by variants compared to parental compound 29 are given.

In data set [10] the target is T1, Cysteineless Mouse MDR3 P-glycoprotein. The experiment in a line: ATP hydrolysis by purified P-glycoprotein, basal and verapamil-stimulated. It is filed as biochemical. Conditions: ± standard deviation. The text has this: The efficacy of molecules identified using in silico methods to function as potential inhibitors of P-glycoprotein was initially tested with regard to their capability to inhibit ATP hydrolysis by purified P-glycoprotein. For this purpose, a well-established activity assay for ATP hydrolyzing enzymes that uses the oxidation of NADH to NAD+ through coupling the reactions of pyruvate kinase and lactate dehydrogenase to the hydrolysis of ATP was adapted to medium throughput conditions on 96 well plates. […] In this set-up, the effects of potential small molecule inhibitors on the ATP hydrolysis activity of P-glycoprotein were tested in duplicate or triplicate and were repeated at least two times using different enzyme preparations.
The P-glycoprotein used in these assays was a close relative of the human P-glycoprotein that is found in mice. A mutant version of the mouse P-glycoprotein where all intrinsic cysteine amino acids had been replaced by alanine residues was recombinantly expressed in the yeast Pichia pastoris and used for these initial tests. […] Prior to testing the ATP-hydrolysis activity, P-glycoprotein was incubated with phosphatidyl choline for stabilization of the enzyme during the assay.
Different concentrations of the to-be-tested small molecules were added and pre-incubated at 37° C. The ATP hydrolysis reaction was then started by adding equal volume of double concentrated ATPase cocktail. The final ATP concentration in the reaction was 2 mM. The reaction was allowed to proceed for 20 minutes, the rate of ATP hydrolysis was calculated using the molar extinction coefficient of NADH, and the one-to-one relationship of ATP hydrolyzed and NADH oxidized.
Evaluation of mode of inhibition of P-glycoprotein by Group 1 and Group 2 variants of compound 29. To assess the mode of inhibition of P-gp by the novel variants of P-gp inhibitor 29, ATP hydrolysis by P-gp was evaluated in the presence or absence of the variants. […] Murine P-gp (MDR3) expressed in Pichia pastoris that had all naturally occurring cysteines replaced with alanine, was used^45, 46. It is widely assumed that the ATP hydrolytic rate of P-gp is stimulated in the presence of transport substrates when compared to ATP hydrolysis in the absence of transport substrates. Assays comparing these rates can therefore be useful not only in identifying inhibitors of P-gp catalyzed ATP hydrolysis, but also to potentially infer whether a compound might be a transport substrate if basal ATPase rates are stimulated by the addition of a compound.

T1 sequence (P21447 whole entry C133A/C427A/C638A/C669A/C713A/C952A/C1070A/C1121A/C1223A): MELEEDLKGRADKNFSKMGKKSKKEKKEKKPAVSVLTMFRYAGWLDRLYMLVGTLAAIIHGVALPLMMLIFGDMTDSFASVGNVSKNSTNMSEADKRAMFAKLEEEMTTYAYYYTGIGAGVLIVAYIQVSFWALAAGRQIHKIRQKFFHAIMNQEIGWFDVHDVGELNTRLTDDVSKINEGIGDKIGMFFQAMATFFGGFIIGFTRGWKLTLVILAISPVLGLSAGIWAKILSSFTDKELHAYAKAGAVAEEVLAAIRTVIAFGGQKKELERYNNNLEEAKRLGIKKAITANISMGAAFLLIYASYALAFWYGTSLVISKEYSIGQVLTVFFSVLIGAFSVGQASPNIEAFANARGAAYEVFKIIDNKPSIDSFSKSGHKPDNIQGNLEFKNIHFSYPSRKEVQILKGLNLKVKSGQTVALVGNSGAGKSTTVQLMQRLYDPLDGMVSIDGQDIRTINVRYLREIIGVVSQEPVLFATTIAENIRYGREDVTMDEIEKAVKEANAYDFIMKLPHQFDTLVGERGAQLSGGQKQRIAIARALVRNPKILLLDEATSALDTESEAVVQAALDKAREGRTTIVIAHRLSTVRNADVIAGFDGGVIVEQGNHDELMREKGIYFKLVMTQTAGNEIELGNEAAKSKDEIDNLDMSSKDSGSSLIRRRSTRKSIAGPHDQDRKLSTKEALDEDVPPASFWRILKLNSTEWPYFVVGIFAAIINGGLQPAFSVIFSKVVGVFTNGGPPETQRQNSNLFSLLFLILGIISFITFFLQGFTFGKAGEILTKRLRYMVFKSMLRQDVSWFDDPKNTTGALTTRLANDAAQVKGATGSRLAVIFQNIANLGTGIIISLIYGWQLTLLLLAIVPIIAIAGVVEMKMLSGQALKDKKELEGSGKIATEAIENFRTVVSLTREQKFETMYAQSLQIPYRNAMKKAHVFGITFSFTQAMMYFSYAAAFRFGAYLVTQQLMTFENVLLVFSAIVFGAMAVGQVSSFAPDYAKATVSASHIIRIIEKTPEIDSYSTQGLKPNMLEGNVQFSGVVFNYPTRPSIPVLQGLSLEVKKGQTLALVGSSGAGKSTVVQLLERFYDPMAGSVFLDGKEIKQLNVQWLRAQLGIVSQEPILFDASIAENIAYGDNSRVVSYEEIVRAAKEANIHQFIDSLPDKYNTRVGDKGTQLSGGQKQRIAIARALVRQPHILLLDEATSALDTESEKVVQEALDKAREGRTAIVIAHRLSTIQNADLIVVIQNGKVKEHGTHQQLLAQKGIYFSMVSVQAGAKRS
Sequence of Normal Human MDR1 P-glycoprotein (P08183 whole entry): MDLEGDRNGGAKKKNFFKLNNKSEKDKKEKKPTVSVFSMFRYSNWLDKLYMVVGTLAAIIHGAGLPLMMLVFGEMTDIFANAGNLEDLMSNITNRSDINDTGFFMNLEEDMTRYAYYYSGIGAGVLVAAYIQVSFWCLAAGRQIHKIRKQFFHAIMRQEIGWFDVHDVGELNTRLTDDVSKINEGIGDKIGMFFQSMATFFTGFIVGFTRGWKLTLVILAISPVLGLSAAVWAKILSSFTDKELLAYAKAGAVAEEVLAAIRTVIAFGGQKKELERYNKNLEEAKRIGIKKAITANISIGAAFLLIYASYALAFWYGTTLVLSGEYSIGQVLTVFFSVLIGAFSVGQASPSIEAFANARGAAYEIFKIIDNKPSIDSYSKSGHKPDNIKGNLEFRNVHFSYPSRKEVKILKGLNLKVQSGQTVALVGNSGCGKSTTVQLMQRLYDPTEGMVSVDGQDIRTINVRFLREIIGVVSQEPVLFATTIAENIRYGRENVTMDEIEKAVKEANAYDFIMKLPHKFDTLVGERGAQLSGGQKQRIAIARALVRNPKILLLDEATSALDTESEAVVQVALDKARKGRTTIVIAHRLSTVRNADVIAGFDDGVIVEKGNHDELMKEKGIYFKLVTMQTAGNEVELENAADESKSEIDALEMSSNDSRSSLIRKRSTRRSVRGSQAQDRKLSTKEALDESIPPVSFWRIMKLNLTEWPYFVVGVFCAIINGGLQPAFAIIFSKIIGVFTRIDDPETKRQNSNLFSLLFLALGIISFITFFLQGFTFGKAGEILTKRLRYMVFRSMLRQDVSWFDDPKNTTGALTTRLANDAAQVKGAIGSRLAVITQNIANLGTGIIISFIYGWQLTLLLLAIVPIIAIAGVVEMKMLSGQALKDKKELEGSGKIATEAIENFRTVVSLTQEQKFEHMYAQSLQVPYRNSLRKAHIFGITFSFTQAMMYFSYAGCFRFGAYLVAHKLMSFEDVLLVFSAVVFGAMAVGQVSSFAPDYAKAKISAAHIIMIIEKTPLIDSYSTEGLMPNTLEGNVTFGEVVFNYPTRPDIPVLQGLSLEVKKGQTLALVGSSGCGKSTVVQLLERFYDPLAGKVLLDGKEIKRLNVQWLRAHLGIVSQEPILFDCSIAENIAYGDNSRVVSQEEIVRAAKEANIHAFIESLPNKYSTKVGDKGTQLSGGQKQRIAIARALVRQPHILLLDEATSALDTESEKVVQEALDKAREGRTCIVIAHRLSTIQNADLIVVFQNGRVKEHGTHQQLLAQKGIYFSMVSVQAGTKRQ

For the molecule `COC(=O)c1ccc(C(c2c(O)oc3ccccc3c2=O)c2c(O)oc3ccccc3c2=O)cc1` [SMU-19, methyl 4-[bis(2-hydroxy-4-oxochromen-3-yl)methyl]benzoate], the “Effect on cell viability with paclitaxel” value in [1] is on record as “no effect on cell viability”. In addition, the “Effect on paclitaxel sensitivity” value in data set [2] is given as “no effect”. Besides, the “Effect on SL-ANP binding” value in data set [3] is given as “reduce the number of binding sites”.

Take `COc1ccc(CCN(C)CCCC(C#N)(c2ccc(OC)c(OC)c2)C(C)C)cc1OC` (centres unmarked) [Verapamil, verapamil, reference compound]: the IC50 in data set [4] (Homo sapiens, intrinsic toxicity, 48 hours, MTT, ± standard error) was found to be 147.5 ± 0.1 µM; in data set [5], 74.5 ± 0.04 µM.

Consider `Cc1cc(C)c(-c2cc(NC(=O)CSc3nnc4c(n3)[nH]c3ccccc34)n(-c3ccccc3)n2)cc1C` [SMU29-541, 2-((5H-[1,2,4]triazino[5,6-b]indol-3-yl)thio)-N-(1-phenyl-3-(2,4,5-trimethylphenyl)-1H-pyrazol-5-yl)acetamide], for which the “Basal ATPase (% of DMSO)” value in [6] (basal) was 87 ± 9 % of DMSO; in [10] (without added transport substrate), 101 ± 12 % of DMSO. Besides, the “Stimulated ATPase (% of DMSO)” value is 66 ± 6 % of DMSO in data set [6] (stimulated) and 68 ± 7 % of DMSO in [10] (in the presence of verapamil). For the same molecule, the “Toxicity in cell viability assays” value in [4] (in the absence of chemotherapeutic) is “some toxicity”. Besides, the “Maximum ATP binding mol SL-ANP bound/mol P-gp” value in [7] was determined as 1.8 ± 0.1 mol SL-ANP bound/mol P-gp. In addition, the “Cellular calcein accumulation relative to parental compound 29” value in data set [8] (after 6-hour pre-incubation) is given as “exceeded 29 significantly”; in [8] (no preincubation) it was “performed relatively equally to 29”. Moreover, the “Fold vs PTX” value in [9] (3 μM inhibitor, fold improvement of PTX sensitivity vs PTX alone) worked out at 5 Fold; in [9] (5 μM inhibitor, vs PTX alone), 101 Fold; in data set [9] (7 μM inhibitor, vs PTX alone), 125 Fold; in data set [9] (10 μM inhibitor, vs PTX alone) it was 125 Fold. The “Fold vs PTX ÷ 29” value in [9] (5 μM inhibitor) came to 9.2 Fold; in data set [9] (7 μM inhibitor), 3.4 Fold; in data set [9] (10 μM inhibitor), 3.4 Fold.

As usually defined, the IC50 is the concentration at which inhibition is half-maximal. Lower therefore signals higher potency.
